Results on five compounds are retold here after patent US7074789B2, “Kinase inhibitors” (Amgen Inc., priority 1999, dated 2006).

What all share (assay type): biochemical
The target in assay [1] is T1, Lyn (Homo sapiens, UniProt P07948).
T1 construct: Kinases are expressed as either kinase domains or full length constructs; made in house
Kind of assay: Kinase inhibition assay (33P transfer), Lyn. The following applies: Table 6, Lyn-1 kinase inhibition class. The procedure, abridged:
(§1)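 Each enzyme, purified to near homogeneity by affinity chromatography, was incubated with ATP carrying 33P and a substrate polymer fixed to the plate. Unbound label was removed with dilute phosphoric acid (0.5%) before adding scintillant and counting. Potency is given as the compound level cutting label uptake by 50%.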

The target of assay [2] is T2, Src (Homo sapiens, UniProt P12931).
T2 construct: Kinases are expressed as either kinase domains or full length constructs; made in house
Kind of assay: Kinase inhibition assay (33P transfer), Src. To be noted: Table 6, Src-1 kinase inhibition class. The procedure, abridged: as §1

In assay [3] the target is T3, Fyn (Homo sapiens, UniProt P06241).
T3 construct: Kinases are expressed as either kinase domains or full length constructs; made in house
T3 sequence (P06241 whole entry, species assumed, the tested form may be a part): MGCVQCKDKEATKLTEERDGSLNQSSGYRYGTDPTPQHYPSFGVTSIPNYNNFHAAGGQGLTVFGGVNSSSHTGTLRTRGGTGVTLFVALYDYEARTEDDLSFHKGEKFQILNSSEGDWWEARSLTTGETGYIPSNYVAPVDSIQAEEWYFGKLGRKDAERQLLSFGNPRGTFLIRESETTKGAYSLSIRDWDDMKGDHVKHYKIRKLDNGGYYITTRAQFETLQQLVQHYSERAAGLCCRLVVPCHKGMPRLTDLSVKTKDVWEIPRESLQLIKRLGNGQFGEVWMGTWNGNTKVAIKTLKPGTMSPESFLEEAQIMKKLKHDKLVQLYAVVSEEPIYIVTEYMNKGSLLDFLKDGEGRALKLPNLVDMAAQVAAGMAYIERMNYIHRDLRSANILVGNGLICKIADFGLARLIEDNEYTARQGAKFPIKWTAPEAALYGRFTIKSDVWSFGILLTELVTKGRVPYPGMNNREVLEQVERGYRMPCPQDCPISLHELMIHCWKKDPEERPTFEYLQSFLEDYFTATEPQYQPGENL
Kind of assay: Kinase inhibition assay (33P transfer), Fyn. The following applies: read-out: Fyn-1. Put shortly: as §1

Assay [4] addresses T4, Flt-1 (Homo sapiens, UniProt P17948).
T4 construct: Kinases are expressed as either kinase domains or full length constructs; made in house
Kind of assay: Kinase inhibition assay (33P transfer), Flt-1. Put shortly:
as §1

Assay [5] has as its target T5, EPHB4 (Homo sapiens, UniProt P54760).
T5 construct: Kinases are expressed as either kinase domains or full length constructs; made in house
T5 sequence (P54760 16-987): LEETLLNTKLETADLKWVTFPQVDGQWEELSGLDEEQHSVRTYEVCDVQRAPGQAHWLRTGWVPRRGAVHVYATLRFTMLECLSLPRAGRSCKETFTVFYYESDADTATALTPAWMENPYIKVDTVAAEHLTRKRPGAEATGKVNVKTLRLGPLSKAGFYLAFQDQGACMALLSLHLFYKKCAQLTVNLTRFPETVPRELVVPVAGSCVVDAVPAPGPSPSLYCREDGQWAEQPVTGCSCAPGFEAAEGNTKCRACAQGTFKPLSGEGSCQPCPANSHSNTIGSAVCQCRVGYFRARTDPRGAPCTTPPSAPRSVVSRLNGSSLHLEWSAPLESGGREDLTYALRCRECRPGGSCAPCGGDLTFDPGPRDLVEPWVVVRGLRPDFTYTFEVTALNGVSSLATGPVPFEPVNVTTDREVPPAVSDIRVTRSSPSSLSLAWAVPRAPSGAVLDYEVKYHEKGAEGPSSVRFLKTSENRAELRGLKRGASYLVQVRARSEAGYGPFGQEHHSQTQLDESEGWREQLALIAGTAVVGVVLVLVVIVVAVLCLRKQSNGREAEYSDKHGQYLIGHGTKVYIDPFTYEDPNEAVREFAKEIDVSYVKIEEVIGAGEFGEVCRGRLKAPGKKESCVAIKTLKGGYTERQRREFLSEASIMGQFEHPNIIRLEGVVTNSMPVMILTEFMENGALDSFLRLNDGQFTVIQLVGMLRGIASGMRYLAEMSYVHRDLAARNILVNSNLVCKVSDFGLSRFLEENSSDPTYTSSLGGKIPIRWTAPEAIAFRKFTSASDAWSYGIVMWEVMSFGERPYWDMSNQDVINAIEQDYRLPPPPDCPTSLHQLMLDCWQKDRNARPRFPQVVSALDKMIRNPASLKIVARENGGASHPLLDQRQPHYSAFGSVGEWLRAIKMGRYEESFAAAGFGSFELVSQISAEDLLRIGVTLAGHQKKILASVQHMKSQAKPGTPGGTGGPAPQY
Kind of assay: Kinase inhibition assay (33P transfer), EPHB4. To be noted: read-out: EPHB4-1.

Assay [6] deals with T6, Hck-1 (Homo sapiens, UniProt P08631).
T6 construct: Kinases are expressed as either kinase domains or full length constructs; made in house
T6 sequence (P08631 whole entry, the tested form may be a part): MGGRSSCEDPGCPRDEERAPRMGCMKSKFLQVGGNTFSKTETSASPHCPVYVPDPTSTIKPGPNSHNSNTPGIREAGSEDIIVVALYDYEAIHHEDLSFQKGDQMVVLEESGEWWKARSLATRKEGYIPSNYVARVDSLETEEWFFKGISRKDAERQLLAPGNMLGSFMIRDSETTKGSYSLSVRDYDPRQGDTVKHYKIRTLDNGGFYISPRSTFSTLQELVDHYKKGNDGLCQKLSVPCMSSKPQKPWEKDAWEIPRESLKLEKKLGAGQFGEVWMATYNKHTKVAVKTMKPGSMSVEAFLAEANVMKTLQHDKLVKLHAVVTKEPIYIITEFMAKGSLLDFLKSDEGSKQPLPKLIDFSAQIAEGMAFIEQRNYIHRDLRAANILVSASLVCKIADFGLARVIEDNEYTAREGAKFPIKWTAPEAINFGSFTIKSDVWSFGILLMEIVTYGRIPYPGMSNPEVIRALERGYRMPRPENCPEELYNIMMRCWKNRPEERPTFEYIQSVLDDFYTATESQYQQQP
Kind of assay: Kinase inhibition assay (33P transfer), Hck. To be noted: Table 6, Hck-1 kinase inhibition class.

The target in assay [7] is T7, ErbB4 (Homo sapiens, UniProt Q15303).
T7 construct: Kinases are expressed as either kinase domains or full length constructs; made in house
T7 sequence (Q15303 26-1308, species assumed): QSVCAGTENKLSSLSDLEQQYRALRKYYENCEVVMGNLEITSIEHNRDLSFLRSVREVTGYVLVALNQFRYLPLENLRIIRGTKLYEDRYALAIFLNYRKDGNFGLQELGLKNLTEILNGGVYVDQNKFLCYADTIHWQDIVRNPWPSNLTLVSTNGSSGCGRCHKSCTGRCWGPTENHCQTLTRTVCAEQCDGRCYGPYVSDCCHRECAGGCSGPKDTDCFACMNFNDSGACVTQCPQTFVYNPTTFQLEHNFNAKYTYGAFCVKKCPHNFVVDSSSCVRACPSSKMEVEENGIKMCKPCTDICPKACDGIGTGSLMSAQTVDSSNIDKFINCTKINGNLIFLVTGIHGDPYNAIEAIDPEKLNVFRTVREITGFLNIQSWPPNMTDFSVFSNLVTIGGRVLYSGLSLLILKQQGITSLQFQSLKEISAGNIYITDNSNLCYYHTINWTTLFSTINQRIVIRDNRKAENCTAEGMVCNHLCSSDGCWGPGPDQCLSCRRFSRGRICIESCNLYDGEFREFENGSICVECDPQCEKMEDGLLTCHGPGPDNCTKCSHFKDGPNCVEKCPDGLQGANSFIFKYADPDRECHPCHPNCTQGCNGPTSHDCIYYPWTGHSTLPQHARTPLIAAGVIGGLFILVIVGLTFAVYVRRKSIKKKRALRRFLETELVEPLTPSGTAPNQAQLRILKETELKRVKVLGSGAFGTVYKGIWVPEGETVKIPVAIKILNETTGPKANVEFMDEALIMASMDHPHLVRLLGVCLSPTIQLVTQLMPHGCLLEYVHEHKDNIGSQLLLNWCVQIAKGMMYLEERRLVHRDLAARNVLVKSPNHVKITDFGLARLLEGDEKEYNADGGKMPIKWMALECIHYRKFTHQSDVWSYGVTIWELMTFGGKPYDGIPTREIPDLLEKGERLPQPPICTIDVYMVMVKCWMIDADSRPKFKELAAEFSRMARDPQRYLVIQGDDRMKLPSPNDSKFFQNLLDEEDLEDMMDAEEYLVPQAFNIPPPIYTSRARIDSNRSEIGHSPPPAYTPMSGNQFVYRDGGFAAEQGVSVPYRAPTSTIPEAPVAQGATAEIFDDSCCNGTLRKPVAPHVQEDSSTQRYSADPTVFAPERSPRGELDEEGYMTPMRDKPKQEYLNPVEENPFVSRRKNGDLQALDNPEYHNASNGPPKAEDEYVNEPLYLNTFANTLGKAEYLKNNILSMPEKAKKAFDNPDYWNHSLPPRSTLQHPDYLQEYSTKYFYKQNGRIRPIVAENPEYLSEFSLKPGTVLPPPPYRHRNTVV
Kind of assay: Kinase inhibition assay (33P transfer), ErbB4. To be noted: read-out: ErbB4-1.

For assay [8], the target named is T8, Ret-1 (Homo sapiens, UniProt P07949).
T8 construct: Kinases are expressed as either kinase domains or full length constructs; made in house
Kind of assay: Kinase inhibition assay (33P transfer), Ret. The following applies: Table 6, Ret-1 kinase inhibition class.

For assay [9], the target named is T9, FGFR1 (Homo sapiens, UniProt P11362).
T9 construct: Kinases are expressed as either kinase domains or full length constructs; made in house
T9 sequence (P11362 22-822, species assumed): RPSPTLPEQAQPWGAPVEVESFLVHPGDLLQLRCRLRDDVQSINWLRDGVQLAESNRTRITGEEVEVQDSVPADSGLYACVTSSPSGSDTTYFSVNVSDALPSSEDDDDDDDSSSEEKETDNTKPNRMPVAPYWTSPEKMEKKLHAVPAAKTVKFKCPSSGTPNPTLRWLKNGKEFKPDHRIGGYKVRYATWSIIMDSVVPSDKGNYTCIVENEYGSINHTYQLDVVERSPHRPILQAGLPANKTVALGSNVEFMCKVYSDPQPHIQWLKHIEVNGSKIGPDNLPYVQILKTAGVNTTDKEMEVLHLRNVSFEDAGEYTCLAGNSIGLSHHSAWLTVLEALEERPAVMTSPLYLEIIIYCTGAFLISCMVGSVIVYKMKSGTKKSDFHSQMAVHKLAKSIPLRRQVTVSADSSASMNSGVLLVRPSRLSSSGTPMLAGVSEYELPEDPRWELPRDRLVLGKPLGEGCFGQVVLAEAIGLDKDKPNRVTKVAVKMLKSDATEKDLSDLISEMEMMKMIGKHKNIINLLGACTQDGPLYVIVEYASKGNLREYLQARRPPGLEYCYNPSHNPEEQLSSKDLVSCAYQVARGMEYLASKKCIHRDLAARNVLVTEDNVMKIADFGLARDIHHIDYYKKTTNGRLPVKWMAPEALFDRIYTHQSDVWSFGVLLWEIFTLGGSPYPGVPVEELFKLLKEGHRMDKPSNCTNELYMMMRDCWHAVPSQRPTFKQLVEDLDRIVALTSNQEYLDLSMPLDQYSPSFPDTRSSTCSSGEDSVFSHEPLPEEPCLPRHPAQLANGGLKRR
Kind of assay: Kinase inhibition assay (33P transfer), FGFR1. The following applies: read-out: FGFR1-1.

Assay [10] addresses T10, Lck (Homo sapiens, UniProt P06239).
T10 construct: Kinases are expressed as either kinase domains or full length constructs; made in house
Kind of assay: Kinase inhibition assay (33P transfer), Lck. To be noted: read-out: Lck-1. Put shortly:
(§2)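 GST/His-tagged kinase (domain or full length; E. coli or baculovirus) + [33P]ATP on plates coated with poly(Glu,Tyr) 4:1 or poly(Arg,Ser) 3:1; incubate, wash 0.5% H3PO4, add scintillant, count.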

Assay [11] has as its target T11, Zap-70 (Homo sapiens, UniProt P43403).
T11 construct: Kinases are expressed as either kinase domains or full length constructs; made in house
T11 sequence (P43403 1-619): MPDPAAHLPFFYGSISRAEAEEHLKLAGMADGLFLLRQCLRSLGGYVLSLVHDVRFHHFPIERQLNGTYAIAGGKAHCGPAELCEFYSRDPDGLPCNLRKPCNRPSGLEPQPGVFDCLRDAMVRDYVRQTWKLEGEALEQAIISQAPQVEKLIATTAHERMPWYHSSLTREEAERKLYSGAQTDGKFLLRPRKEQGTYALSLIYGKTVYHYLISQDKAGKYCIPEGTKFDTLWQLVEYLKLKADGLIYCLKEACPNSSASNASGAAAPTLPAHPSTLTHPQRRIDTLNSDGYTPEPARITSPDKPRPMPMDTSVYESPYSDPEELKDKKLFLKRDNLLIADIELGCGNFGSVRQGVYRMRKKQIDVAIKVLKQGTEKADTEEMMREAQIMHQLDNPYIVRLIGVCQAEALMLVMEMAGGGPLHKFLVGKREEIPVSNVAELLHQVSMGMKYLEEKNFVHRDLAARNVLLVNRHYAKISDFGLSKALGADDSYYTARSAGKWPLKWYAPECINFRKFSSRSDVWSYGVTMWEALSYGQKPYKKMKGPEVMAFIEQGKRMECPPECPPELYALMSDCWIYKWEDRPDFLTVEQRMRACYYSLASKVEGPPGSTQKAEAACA
Kind of assay: Kinase inhibition assay (33P transfer), Zap-70. The following applies: read-out: Zap-1. The procedure, abridged: as §2

In assay [12] the target is T12, Itk (Homo sapiens, UniProt Q08881).
T12 construct: Kinases are expressed as either kinase domains or full length constructs; made in house
T12 sequence (Q08881 1-620): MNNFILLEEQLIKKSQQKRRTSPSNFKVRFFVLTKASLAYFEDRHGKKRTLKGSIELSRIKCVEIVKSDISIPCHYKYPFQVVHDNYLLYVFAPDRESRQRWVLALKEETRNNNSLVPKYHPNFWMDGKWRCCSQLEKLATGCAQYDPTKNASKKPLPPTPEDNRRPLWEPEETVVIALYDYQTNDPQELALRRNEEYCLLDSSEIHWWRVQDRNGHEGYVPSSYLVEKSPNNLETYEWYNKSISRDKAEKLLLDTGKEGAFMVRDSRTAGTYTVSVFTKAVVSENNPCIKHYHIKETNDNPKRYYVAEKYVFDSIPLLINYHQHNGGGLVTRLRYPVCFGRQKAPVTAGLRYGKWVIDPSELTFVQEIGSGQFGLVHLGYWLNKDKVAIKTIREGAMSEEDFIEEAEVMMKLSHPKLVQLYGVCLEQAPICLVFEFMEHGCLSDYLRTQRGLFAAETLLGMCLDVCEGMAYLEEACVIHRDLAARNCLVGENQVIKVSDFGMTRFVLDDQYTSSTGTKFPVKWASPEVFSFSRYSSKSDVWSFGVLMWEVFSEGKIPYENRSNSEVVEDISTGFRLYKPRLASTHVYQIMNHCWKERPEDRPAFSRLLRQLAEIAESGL
Kind of assay: Kinase inhibition assay (33P transfer), Itk. To be noted: read-out: Itk-1. Put shortly: as §1

Assay [13] addresses T13, EGFR (Homo sapiens, UniProt P00533).
T13 construct: Kinases are expressed as either kinase domains or full length constructs; made in house
Kind of assay: Kinase inhibition assay (33P transfer), EGFR. The following applies: Table 2, kinase inhibition class; read-out: EGFR-1. Put shortly: as §1

The target of assay [14] is T14, ErbB2 (Homo sapiens, UniProt P04626).
T14 construct: Kinases are expressed as either kinase domains or full length constructs; made in house
Kind of assay: Kinase inhibition assay (33P transfer), ErbB2. To be noted: read-out: ErbB2-2. Put shortly: as §1

Assay [15] concerns the target T15, Kdr (Homo sapiens, UniProt P35968).
T15 construct: Kinases are expressed as either kinase domains or full length constructs; made in house
Kind of assay: Kinase inhibition assay (33P transfer), Kdr. To be noted: read-out: KDR-1. The procedure, abridged: as §2

In assay [16] the target is T16, Tek (Homo sapiens, UniProt Q02763).
T16 construct: Kinases are expressed as either kinase domains or full length constructs; made in house
Kind of assay: Kinase inhibition assay (33P transfer), Tek. The following applies: read-out: Tek-1. Put shortly:
as §1

Assay [17] has as its target T17, c-Met (Homo sapiens, UniProt P08581).
T17 construct: Kinases are expressed as either kinase domains or full length constructs; made in house
Kind of assay: Kinase inhibition assay (33P transfer), c-Met. To be noted: Table 2, kinase inhibition class; read-out: Met-1. The procedure, abridged: as §1

In assay [18] the target is T18, AKT (Homo sapiens, UniProt Q9Y243).
T18 construct: Kinases are expressed as either kinase domains or full length constructs; made in house
Kind of assay: Kinase inhibition assay (33P transfer), AKT. The following applies: Table 2, kinase inhibition class; read-out: AKT3-1. The procedure, abridged:
as §2

In assay [19] the target is T19, IGFR-1 (Homo sapiens, UniProt P08069).
T19 construct: Kinases are expressed as either kinase domains or full length constructs; made in house
Kind of assay: Kinase inhibition assay, IGFR-1 (Table 2). To be noted: Table 2, kinase inhibition class.

Assay [20] has as its target T20, PDGFRB (Homo sapiens, UniProt P09619).
T20 construct: Kinases are expressed as either kinase domains or full length constructs; made in house
Kind of assay: Kinase inhibition assay (33P transfer), PDGFRB. To be noted: read-out: PDGFRB-1.

T4 sequence (P17948 27-1338, species assumed): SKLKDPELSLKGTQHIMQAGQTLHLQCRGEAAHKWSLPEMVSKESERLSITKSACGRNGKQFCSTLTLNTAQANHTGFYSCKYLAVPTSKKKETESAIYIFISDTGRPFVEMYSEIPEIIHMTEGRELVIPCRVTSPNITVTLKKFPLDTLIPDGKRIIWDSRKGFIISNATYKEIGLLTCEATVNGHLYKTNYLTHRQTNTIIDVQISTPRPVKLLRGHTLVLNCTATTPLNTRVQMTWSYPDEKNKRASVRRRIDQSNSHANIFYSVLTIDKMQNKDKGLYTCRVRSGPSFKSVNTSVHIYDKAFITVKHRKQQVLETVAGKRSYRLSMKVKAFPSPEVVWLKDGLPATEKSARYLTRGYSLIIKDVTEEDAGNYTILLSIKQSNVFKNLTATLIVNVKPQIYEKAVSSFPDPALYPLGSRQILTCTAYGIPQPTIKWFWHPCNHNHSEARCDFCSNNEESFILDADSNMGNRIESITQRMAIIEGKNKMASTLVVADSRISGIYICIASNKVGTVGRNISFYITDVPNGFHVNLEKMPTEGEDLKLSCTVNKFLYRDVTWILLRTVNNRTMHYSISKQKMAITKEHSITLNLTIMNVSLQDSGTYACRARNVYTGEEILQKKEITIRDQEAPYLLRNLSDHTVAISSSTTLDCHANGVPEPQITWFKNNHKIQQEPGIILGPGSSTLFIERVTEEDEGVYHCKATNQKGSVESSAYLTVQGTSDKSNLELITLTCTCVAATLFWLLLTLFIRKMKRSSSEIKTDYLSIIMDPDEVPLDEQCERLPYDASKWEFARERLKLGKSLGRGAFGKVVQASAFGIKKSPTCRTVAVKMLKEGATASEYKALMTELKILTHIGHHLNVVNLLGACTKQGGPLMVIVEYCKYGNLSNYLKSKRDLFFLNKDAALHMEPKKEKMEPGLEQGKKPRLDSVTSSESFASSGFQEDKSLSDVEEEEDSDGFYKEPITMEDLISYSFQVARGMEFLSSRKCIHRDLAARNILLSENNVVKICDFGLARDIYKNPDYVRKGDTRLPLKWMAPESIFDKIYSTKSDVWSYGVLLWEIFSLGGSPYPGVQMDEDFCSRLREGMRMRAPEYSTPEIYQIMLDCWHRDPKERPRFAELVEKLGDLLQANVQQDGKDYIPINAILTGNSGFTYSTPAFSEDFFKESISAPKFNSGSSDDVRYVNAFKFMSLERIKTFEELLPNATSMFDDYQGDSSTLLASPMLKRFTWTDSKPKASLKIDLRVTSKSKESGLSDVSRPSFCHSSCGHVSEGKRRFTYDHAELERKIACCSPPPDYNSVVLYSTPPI
T1 sequence (P07948 whole entry, species assumed, the tested form may be a part): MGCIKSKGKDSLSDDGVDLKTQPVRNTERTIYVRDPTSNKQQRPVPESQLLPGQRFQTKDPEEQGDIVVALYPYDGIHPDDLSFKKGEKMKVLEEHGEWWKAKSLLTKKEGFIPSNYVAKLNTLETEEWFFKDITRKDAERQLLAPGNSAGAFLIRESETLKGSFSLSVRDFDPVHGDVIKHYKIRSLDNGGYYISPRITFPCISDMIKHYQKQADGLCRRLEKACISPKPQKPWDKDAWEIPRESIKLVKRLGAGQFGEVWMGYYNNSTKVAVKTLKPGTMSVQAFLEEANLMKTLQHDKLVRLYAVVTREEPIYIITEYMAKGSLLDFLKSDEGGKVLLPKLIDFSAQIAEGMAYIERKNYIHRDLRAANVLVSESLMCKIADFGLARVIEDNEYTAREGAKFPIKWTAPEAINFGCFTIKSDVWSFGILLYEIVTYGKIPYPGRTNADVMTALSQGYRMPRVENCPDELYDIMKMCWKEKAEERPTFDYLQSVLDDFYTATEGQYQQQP

For the compound `COc1cc(Nc2ncnc(-n3c(N)nc4cc(C(F)(F)F)ccc43)n2)cc(OC)c1OC` [Compound 292], the IC50 was 0.867 to 5.2 µM in assay [1]; 0.867 to 5.2 µM in assay [2]; 5.2 to 7.59 µM in assay [3]; 0.867 to 5.2 µM in [4]; 0.867 to 5.2 µM in assay [5]; above 9.75 µM in assay [6]. Further, the IC50 was above 9.75 µM in assay [7], 0.867 to 5.2 µM in assay [8] and 7.59 to 9.75 µM in [9].

With `COc1cc(Nc2ncnc(-n3c(N)nc4cc([N+](=O)[O-])ccc43)n2)cc(OC)c1OC` [Compound 294], the IC50 was above 10.3 µM in [1]; above 10.3 µM in [2]; above 10.3 µM in [3]; above 10.3 µM in [4]; 0.912 to 5.47 µM in [5]; above 10.3 µM in assay [6]. In addition, the IC50 is above 10.3 µM in assay [7], 0.912 to 5.47 µM in assay [8] and above 10.3 µM in assay [9].

Consider `COc1cc(Nc2ncnc(-n3c(N)nc4cc(Cl)ccc43)n2)cc(OC)c1OC` [Compound 296], for which the IC50 in assay [1] was 0.935 to 5.61 µM; in assay [2], 0.935 to 5.61 µM; in assay [3], 5.61 to 8.18 µM; in [4], 0.935 to 5.61 µM; in assay [5], below 0.935 µM; in assay [6] it was above 10.5 µM. The IC50 in assay [7] was 8.18 to 10.5 µM; in assay [8], below 0.935 µM; in [9], 0.935 to 5.61 µM.

As to `COc1cc(Nc2ncnc(-c3cccnc3NCc3ccc(F)cc3)n2)cc(OC)c1OC` [Compound 1088], the IC50 in assay [10] was 5.19 to 7.57 µM; in [1] it was above 9.73 µM; in assay [2], above 9.73 µM; in [3], above 9.73 µM; in [11], above 9.73 µM; in assay [12] it was above 9.73 µM. Further, the IC50 in assay [13] was above 9.73 µM; in assay [14], above 9.73 µM; in assay [15], below 0.865 µM; in [4], above 9.73 µM; in assay [16], above 9.73 µM; in assay [17], above 9.73 µM. Moreover, the IC50 in assay [18] is above 9.73 µM; in assay [19], above 9.73 µM; in assay [20], below 0.865 µM; in [6], above 9.73 µM; in assay [7], above 9.73 µM; in assay [8] it was below 0.865 µM. Also, in assay [9], the IC50 is below 0.865 µM.

For the compound `COc1cc(Nc2ncnc(-c3cccnc3NC(C)C)n2)cc(OC)c1OC` [Compound 1089], the IC50 is below 1.01 µM in [10]; below 1.01 µM in assay [1]; 1.01 to 6.05 µM in assay [2]; 1.01 to 6.05 µM in assay [3]; above 11.4 µM in assay [11]; 6.05 to 8.83 µM in [12]. The IC50 in assay [13] is above 11.4 µM; in [14] it was above 11.4 µM; in assay [15], below 1.01 µM; in assay [4], above 11.4 µM; in [16] it was above 11.4 µM; in assay [17] it was above 11.4 µM. Moreover, the IC50 in assay [18] is above 11.4 µM; in assay [19], above 11.4 µM; in assay [20] it was below 1.01 µM; in assay [6], above 11.4 µM; in assay [7] it was above 11.4 µM; in assay [8], below 1.01 µM. Moreover, the IC50 in assay [9] was above 11.4 µM.
